Test results published in PubChem BioAssay (NCI).
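All cell lines were grown in 96-well plates and treated with compound for 48 hours. Abbreviation: GI50, concentration required for 50% inhibition of growth. Definition used: TGI = concentration required for complete inhibition of growth.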

Key:
Experiment in all cases: inhibition of tumour cell growth, NCI panel, 48 h
786-0 renal = tested on: 786-0 renal
CAKI-1 renal = tested on: CAKI-1 renal
CCRF-CEM leukemia = tested on: CCRF-CEM leukemia
HCT-116 colon = tested on: HCT-116 colon
NCI-H522 lung = tested on: NCI-H522 lung
OVCAR-3 ovarian = tested on: OVCAR-3 ovarian
OVCAR-8 ovarian = tested on: OVCAR-8 ovarian
SF-268 CNS = tested on: SF-268 CNS
UACC-257 melanoma = tested on: UACC-257 melanoma
NCI/ADR-RES ovarian = tested on: NCI/ADR-RES ovarian

SMILES | TGI (786-0 renal) | TGI (CAKI-1 renal) | TGI (CCRF-CEM leukemia) | TGI (HCT-116 colon) | TGI (NCI-H522 lung) | TGI (OVCAR-3 ovarian) | TGI (OVCAR-8 ovarian) | TGI (SF-268 CNS) | TGI (UACC-257 melanoma) | TGI (NCI/ADR-RES ovarian) | GI50 (786-0 renal) | GI50 (CAKI-1 renal) | GI50 (CCRF-CEM leukemia) | GI50 (HCT-116 colon) | GI50 (OVCAR-3 ovarian) | GI50 (OVCAR-8 ovarian) | GI50 (SF-268 CNS) | GI50 (NCI/ADR-RES ovarian) | GI50 (UACC-257 melanoma) | GI50 (NCI-H522 lung)
CC(CC(=O)N1C(=O)C(C)(C)[C@@H](O)[C@H]1CC(C)C(Cl)(Cl)Cl)C(Cl)(Cl)Cl (stereo partly drawn) | > 100 µM | > 100 µM | > 100 µM | > 100 µM | > 100 µM | > 100 µM | > 100 µM | > 100 µM | > 100 µM | – | – | – | – | – | – | – | – | – | – | –
COc1cc(-c2nccc3cc(OC)c(OC)cc23)ccc1O | > 100 µM | > 100 µM | > 100 µM | > 100 µM | > 100 µM | > 100 µM | > 100 µM | – | > 100 µM | – | – | – | – | – | – | – | – | – | – | –
Cc1n[nH]c(=S)n(C)c1=S | > 100 µM | – | > 100 µM | > 100 µM | > 100 µM | > 100 µM | > 100 µM | > 100 µM | – | – | – | – | – | – | – | – | – | – | – | –
O=C1C(=C(C(F)(F)Cl)C(F)(F)Cl)C2CCC1C2 (stereo not drawn) | 3.64 µM | – | > 10 µM | 3.61 µM | 0.56 µM | > 6.36 µM | 4.24 µM | > 6.62 µM | 4.2 µM | 5.18 µM | – | – | – | – | – | – | – | – | – | –
CCC[CH2][Sn]([CH2]CCC)([O]c1cccc2cccnc12)[O]c1cccc2cccnc12 | 0.607 µM | 0.718 µM | 0.313 µM | 0.385 µM | – | 0.324 µM | 0.945 µM | 0.575 µM | – | – | 0.237 µM | 0.2 µM | 0.0317 µM | 0.189 µM | 0.167 µM | 0.263 µM | 0.203 µM | – | – | –
CN(C)CCN1C(=O)c2cccc3cc([N+](=O)[O-])cc(c23)C1=O | 8.1 µM | 1.76 µM | 0.798 µM | 6.7 µM | 2.12 µM | 6.27 µM | 2.02 µM | 3.12 µM | 2.13 µM | – | – | – | – | – | – | – | – | – | – | –
CCOC(=O)C(=O)Nc1nc2c(OCC)cccc2s1 | > 100 µM | > 100 µM | – | > 100 µM | > 100 µM | > 100 µM | > 100 µM | > 100 µM | > 100 µM | – | – | – | – | – | – | – | – | – | – | –
O=C1C(Cl)=C(Nc2ccc(Nc3ccccc3)c(NC3=C(Cl)C(=O)c4ccccc4C3=O)c2)C(=O)c2ccccc21 | 46.5 µM | 29 µM | > 100 µM | – | – | 3.21 µM | > 100 µM | 18.8 µM | 33.7 µM | > 100 µM | 15.2 µM | 5.36 µM | 3.71 µM | – | 1.69 µM | 4.08 µM | 3.63 µM | 27.5 µM | 6.12 µM | –
COc1cc(/C=C(\NC(=O)c2ccccc2)c2nc3ccc4c(c3[nH]2)C(=O)c2ccccc2C4=O)cc(OC)c1OC | > 100 µM | > 100 µM | > 100 µM | > 100 µM | > 100 µM | > 100 µM | > 100 µM | > 100 µM | > 100 µM | – | – | – | – | – | – | – | – | – | – | –
CC1CCN(Cc2ccc(NC(=O)c3cc4ccc5cccnc5c4[nH]3)cc2)CC1 | 8.46 µM | 31 µM | – | 19.6 µM | – | 39.2 µM | 29.5 µM | 40.9 µM | – | 68.9 µM | 2.71 µM | 6.58 µM | – | 4.18 µM | 7.83 µM | 10.6 µM | 7.07 µM | 17.3 µM | – | –
O=S(=O)(CCN1CCOCC1)Nc1cc(-c2ccc3ncnc(Nc4ccc(F)c(Cl)c4)c3c2)cnc1Cl | > 100 µM | – | > 100 µM | 19.2 µM | – | 3.91 µM | 31.2 µM | 27.4 µM | 8.12 µM | > 100 µM | 0.41 µM | – | 0.455 µM | 1.38 µM | 0.391 µM | 1.67 µM | 0.407 µM | 5.63 µM | 0.498 µM | –
COc1ccc(/C=C2\CN(C(=O)C(Cl)Cl)C/C(=C\c3ccc(OC)cc3)C2=O)cc1 | 3.86 µM | – | > 100 µM | 0.653 µM | – | – | > 100 µM | > 100 µM | – | 15.1 µM | 1.88 µM | – | 0.528 µM | 0.234 µM | – | 0.881 µM | 2.95 µM | 2 µM | – | –
NC(=NCc1ccccc1)C(N=Nc1ccccc1)C(=O)NCc1ccccc1 (stereo not drawn) | 30 µM | 15.2 µM | 84.4 µM | 3.47 µM | – | 3.75 µM | 15.2 µM | 6.44 µM | 69.5 µM | 23.8 µM | 12.1 µM | 3.44 µM | 3.54 µM | 1.76 µM | 1.93 µM | 3.56 µM | 2.53 µM | 6.46 µM | 26.8 µM | –
COC(=O)C1=C(O)[C@H](C(=O)OC)C2(O)C(C(=O)OC)[C@H](c3ccc(OC(=O)C(C)c4ccccc4)cc3)C[C@@H]1[C@@H]2C(=O)OC (stereo partly drawn) | > 50 µM | > 50 µM | – | > 50 µM | 45.1 µM | 21.4 µM | > 50 µM | > 50 µM | > 50 µM | > 50 µM | 38.9 µM | 15.2 µM | – | 17.3 µM | 9.69 µM | 15 µM | 17.2 µM | > 50 µM | 41.1 µM | 15.9 µM
O=C(Nc1ccc(Cc2ccccc2)cc1)Nc1nn(C(=O)Nc2ccc(Cc3ccccc3)cc2)c2ccccc12 | > 100 µM | > 100 µM | – | > 100 µM | > 100 µM | > 100 µM | > 100 µM | > 100 µM | > 100 µM | > 100 µM | > 100 µM | > 100 µM | – | > 100 µM | > 100 µM | > 100 µM | 75.6 µM | > 100 µM | > 100 µM | > 100 µM
O=S(=O)([O-])c1ccc(N=Cc2ccccc2[O-])cc1.O=S(=O)([O-])c1ccc(N=Cc2ccccc2[O-])cc1.[Co+2] | > 100 µM | – | > 100 µM | – | – | – | > 100 µM | 79.3 µM | > 100 µM | – | 76.7 µM | – | 15.5 µM | – | – | > 100 µM | 20.7 µM | – | > 100 µM | –
CCCc1n(Cc2ccc3ccccc3c2)cc[n+]1Cc1ccc2ccccc2c1 | 2.91 µM | – | 4.93 µM | 2.17 µM | 1.69 µM | – | – | 2.52 µM | 1.76 µM | 44.3 µM | 1.52 µM | – | 1.48 µM | 0.971 µM | – | – | 1.08 µM | 17.1 µM | 0.466 µM | 0.378 µM
O=C(Nc1cccc2c1C(=O)c1c(NC(=O)c3ccccc3)ccc(Nc3cccc4c3C(=O)c3ccccc3C4=O)c1C2=O)c1ccccc1 | > 100 µM | > 100 µM | > 100 µM | > 100 µM | > 100 µM | > 100 µM | > 100 µM | > 100 µM | > 100 µM | – | – | – | – | – | – | – | – | – | – | –
